# pKd: −log10 of the molar value. Like-named read-outs stand apart in the source and are kept apart here. *1 amine or outer side, *2 acyl side, *3 side chain or, on linkers, in order; H or OH if unused. Where a SMILES comes first, the peptide text is derived from it. Where no end group is shown, it is not given here. [ ]: non-standard residue; d: D form. The star is where a group is joined. Dolaproine = CO[C@@H]([C@@H]1CCCN1)[C@@H](C)C(=O)O; Hexanoyl(6-maleimido) = O=C1C=CC(=O)N1CCCCCC(=O)*; Dil = CC[C@H](C)[C@H](NC)[C@@H](CC(=O)O)OC; PABC = O=C(OCc1ccc(N[*:1])cc1)[*:2]; X1 = C[C@@H](N*)[C@@H](O)c1ccccc1; Cit = NC(=O)NCCC[C@H](N)C(=O)O; NMeV = CN[C@H](C(=O)O)C(C)C
# Experiments:
# [1] = system: PC3-PSMA-/ANXA1- and PC3-PSMA+/ANXA1+; conditions: mouse, in vivo, ip, 28.7 mg/kg
# Text: Further, variation in accumulation depending on the tumor size was examined. […] Tumor accumulation was examined in the same manner as above (FIG. 22).
# [2] = system: human head and neck cancer cells SAS and human osteosarcoma cancer cells MG-63; conditions: mouse, in vivo
# Experimental: 96 hours after the administration, the mice were sacrificed, and the main organs were resected and then imaged ex vivo.
# [3] = molecular target: L-MC16 (L-amino acid MC16 peptide, 15 N-terminal residues of annexin A1) (human or mouse ANXA1 ("such as human ANXA1 or mouse ANXA1")); assay: BLI (Octet K2), biotinylated D-peptide on SSA biosensor, L-MC16 as analyte, 37°C, 1:1 model
# [4] = system: PC3-Luc2-PSMA+/ANXA1-positive cells; assay: Cytotoxicity (Cell Counting Kit-8) to ANXA1-positive PC3 cells; type: cell-based, human
# Experimental: (§1) The cell viability was analyzed by Cell Counting Kit-8 (Dojindo), and the IC50 value was calculated (FIG. 40).
# [5] = system: PSMA-positive/ANXA1-positive PC3 cells; assay: Anticancer treatment in femur PC3 tumor model at same vcMMAE dose; type: in vivo, mice; conditions: four courses; for average radiance of luciferase-expressing tumor: vcMMAE-dhp7 2.14 mg/kg or vcMMAE 1.25 mg/kg intraperitoneal every four days
# Experimental: 2 × 10^6 PSMA-positive/ANXA1-positive PC3 cells were inoculated into the right femur. […] As control, 1.25 mg/kg (31.25 ng vcMMAE/25 g mouse) of vcMMAE alone (molecular weight: 1316.6) was administered. The tumor size was monitored by measuring the average radiance (photon/sec/cm^2/sr) of the luciferase-expressing tumor after injection of luciferin (150 mg/mouse using an IVIS system. After four courses of administration, the average radiance of the luciferase-expressing tumor and the body weight were evaluated (FIG. 48).
# [6] = system: PC3-Luc2-PSMA-/ANXA1-negative cells; assay: Cytotoxicity (Cell Counting Kit-8) to ANXA1-negative PC3 cells; type: cell-based, human; conditions: 37°C for 24 hours; cell viability by Cell Counting Kit-8
# Experimental: as §1
# [7] = system: PSMA-negative/ANXA1-negative human prostate cancer cells PC3 and PSMA-positive/ANXA1-positive PC3 cells; assay: Anticancer treatment in back subcutaneous PC3 tumor model; type: in vivo, nude mice
# Experimental: 1 × 10^6 PSMA-negative/ANXA1-negative human prostate cancer cells PC3 were inoculated into the left back of nude mice, and 1 × 10^6 PSMA-positive/ANXA1-positive PC3 cells were inoculated into the right back of the nude mice. […] As control, 0.919 mg/kg (22.975 ng vcMMAE/25 g mouse) of vcMMAE alone (molecular weight: 1316.6) was administered. The tumor size was monitored by measuring the average radiance (photon/sec/cm^2/sr) of the luciferase-expressing tumor after injection of luciferin (150 mg/mouse) using an IVIS system. After three courses of administration, the tumor size, body weight, pathological test, blood biochemical test, and blood cell count test values were evaluated (FIG. 41).
# [8] = system: PSMA-negative/ANXA1-negative human prostate cancer cells PC3 and PSMA-positive/ANXA1-positive PC3 cells; assay: Anticancer treatment in femur subcutaneous PC3 tumor model; type: in vivo, nude mice; conditions: vcMMAE-dhp7 1.25 mg/kg or vcMMAE 0.919 mg/kg intraperitoneal every four days, three courses; femur tumors
# Experimental: As control, 0.919 mg/kg (22.975 ng vcMMAE/25 g mouse) of vcMMAE alone (molecular weight: 1316.6) was administered. The tumor size was monitored by measuring the average radiance (photon/sec/cm^2/sr) of the luciferase-expressing tumor after injection of luciferin (150 mg/mouse using an IVIS system. After three courses of administration, the average radiance of the luciferase-expressing tumor and the body weight were evaluated (FIG. 46).
# [9] = State of dissolution in physiological saline at dosing concentration; type: physicochemical; conditions: dosing solutions: ^10BSH 1.25 mg/25 g mouse, ^10BSH-vc-dhp7 8.25 mg/25 g mouse, IF7-^10BSH 10.08 mg/25 g mouse
# Text: Thus, it was shown that ^10BSH-vc-dhp7 is more soluble and more flexible in designing the dosage form than IF7-^10BSH.
# [10] = system: PC3-PSMA+ and PC3-PSMA- cells; assay: Uptake of ^10BSH in PC3 cells by immunofluorescent staining (Val-Cit conjugate); type: cell-based, human
# Experimental: (§2) Uptake of ^10BSH-vc-dhp7 in cancer cells was examined. 330 µg of ^10BSH-vc-dhp7, 403.6 µg of […](EMCS-^10BSH)RR (IF7-^10BSH (a compound described in WO2019244954)) (SEQ ID NO: 40 ([…])), or 50 µg of ^10BSH was added to PC3-PSMA+ and PC3-PSMA- cells seeded in a 3.5 cm culture dish (ib81156) manufactured by ibidi. 24 hours later, the cells were washed with PBS three times and then fixed with 4% PFA. Each peptide-boron compound was prepared to have a boron concentration that allows 50 µg of ^10BSH to be finally added. After blocking with 3% BSA BD PhosFlow perm/wash buffer I (BD557885), 3% BSA BD PhosFlow perm/wash buffer I containing 1 µg/ml of the rabbit anti-^10BSH polyclonal antibody #52 was reacted at room temperature for one hour with ^10BSH taken up into the cells. After washing with PBS three times, it was reacted at room temperature for one hour with an APC-labeled anti-mouse IgG antibody (diluted 1000-fold) to detect the rabbit anti-^10BSH polyclonal antibody, and washed with PBS three times. Then, intracellular uptake of […], IF7-^10BSH, or ^10BSH in each cancer cell was examined by a fluorescence microscope (Keyence BZ9000) (FIGS. 27 and 28).
# [11] = system: human prostate cancer cells PC3-PSMA-/ANXA1-; assay: BNCT in ANXA1-negative prostate cancer model; type: in vivo, nude mice; conditions: ^10BSH 50 mg/kg or conjugate 330 mg/kg intraperitoneal, two irradiations
# Experimental: (§3) Since it was found in Example 10 that the boron concentration in the tumor tissue by administration of ^10BSH-vc-dhp7 is sufficient for the antitumor effect of neutron capture therapy (BNCT), boron neutron capture therapy by EMCS-^10BSH-vc-dhp7 was attempted in ANXA1-negative human prostate cancer and ANXA 1-positive head and neck cancer models. […] Starting from 24 hours after the administration, the tumor area was irradiated with thermal neutrons at 20 MeV 100 mA for 60 minutes using an accelerator manufactured by Sumitomo Heavy Industries (dose: 1.63 × 10^12/cm^2, average 0.23 Gy). One week after the irradiation, second BNCT treatment was performed.
# (§4) Irradiation with thermal neutrons was then performed. One week after the second irradiation, mice of each group were sacrificed. The tumor size and the tumor weight were measured, and pathological analysis of the resected tissue was performed to verify the antitumor effect. The tumor volume was measured from the start of administration until sacrifice by the calculation formula: V = long axis × short axis × short axis/2) (FIGS. 38 and 39).
# [12] = system: PC3, SAS, and MG-63 cells; assay: Uptake of ^10BSH in PC3, SAS and MG-63 cells by immunofluorescent staining; type: cell-based, human; conditions: compared with non-addition group
# Experimental: as §2
# [13] = system: human head and neck cancer cells SAS; assay: BNCT in ANXA1-positive head and neck cancer model; type: in vivo, nude mice
# Experimental: as §3, §4
# [14] = system: mouse bladder cancer cells MBT2; assay: Boron neutron capture therapy (BNCT) in mouse bladder cancer model; type: in vivo, C3H/HeN mice
# Experimental: Since it was found in Example 6 that ^10BSH-dhp7 is taken up into Anxa1-positive cancer cells, boron neutron capture therapy by ^10BSH-dhp7 was attempted in a mouse bladder cancer model.
# Starting from 48 hours after the administration, the tumor area was irradiated with thermal neutrons at 20 MeV 100 mA for 60 minutes using an accelerator manufactured by Sumitomo Heavy Industries (dose: 1.63 × 10^12/cm^2, average 0.23 Gy). One week after the irradiation, second BNCT treatment was performed. 24 hours prior to irradiation with thermal neutrons, 20 mg/kg (0.4 mg/20 g mouse) of ^10BSH-dhp7 was intraperitoneally administered. Irradiation with thermal neutrons was then performed. One week after the second irradiation, mice of each group were sacrificed. The tumor size and the tumor weight were measured, and pathological analysis of the resected tissue was performed to verify the antitumor effect. The tumor volume was measured from the start of administration until sacrifice by the calculation formula: V = long axis × short axis × short axis/2) (FIG. 17).
# MBT2 and PC3-PSMA+ cells = assay: Uptake of ^10BSH in cancer cells by immunofluorescent staining with anti-^10BSH antibody; type: cell-based; conditions: 50 µg added, 24 hours; compared with ^10BSH
# Experimental: Uptake of ^10BSH-dhp7 in cancer cells was examined. 50 µg of ^10BSH-dhp7 or ^10BSH was added to MBT2 and PC3-PSMA+ cells seeded in a 3.5 cm culture dish (ib81156) manufactured by ibidi. 24 hours later, the cells were washed with PBS three times and then fixed with 4% PFA. After blocking with 3% BSA BD PhosFlow perm/wash buffer I (BD557885), 3% BSA BD PhosFlow perm/wash buffer I containing 1 µg/ml of the rabbit anti-^10BSH polyclonal antibody #52 was reacted at room temperature for one hour with ^10BSH taken up into the cells. After washing with PBS three times, it was reacted at room temperature for one hour with an APC-labeled anti-mouse IgG antibody (diluted 1000-fold) to detect the rabbit anti-^10BSH polyclonal antibody, and washed with PBS three times. Then, intracellular uptake of ^10BSH-dhp7 or ^10BSH in each cancer cell was examined by a fluorescence microscope (Keyence BZ9000) (FIG. 16).
compound,measurement,setting,value
c(MI-Cy7.5)-vc-hpnevrs [Cy7.5-vc-dhp7],start of selective accumulation in the tumor tissue,[1],60 min
same,tumor accumulation maintained until,[1],96 h
same,start of selective accumulation in the tumor tissue,[2],60 min
same,time of maximum tumor accumulation,[2],2 to 24 h
same,tumor accumulation maintained until,[2],96 h
biotin-dqy7 (D-amino acid peptide qyatnlk modified with biotin at the N-terminus),pKd,[3],6.00
c(vcMMAE)-hpnevrs [vcMMAE-dhp7],IC50 value,"[4]; 37°C for 24 hours, cell viability by Cell Counting Kit-8",122.7 ng
same,in-vitro sensitivity of Anxa1-positive cells relative to ANXA1-negative cells,[4]; PC3 cells,twice
same,resected tumor weights compared with vcMMAE treatment group,[5],markedly smaller
same,average radiance of luciferase-expressing tumor,[5],markedly reduced
same,IC50 value,[6],204.5 ng
same,average radiance of luciferase-expressing tumor,"[7]; 1.25 mg/kg intraperitoneal every four days, three courses, back subcutaneous tumors",almost completely reduced
same,appearance and HE staining of resected tumors,[7]; in contrast to vcMMAE alone administration group,marked necrotic change and fewer residual tumors were observed
same,CD31-positive vessel density in the residual tumors,[7]; versus vcMMAE treatment group,statistically significantly reduced
same,average radiance of luciferase-expressing tumor,[8],reduced similarly over the three courses of treatment
"IFLLWQRK(EMCS-^10BSH)RR (EMCS-10BSH boron cluster; C-terminal RR) [IF7-^10BSH, reference compound]",state in physiological saline,[9],poorly soluble and cloudy
biotin-dhp7 (D-amino acid peptide hpnevrs modified with biotin at the N-terminus),pKd,[3],6.32
CC[C@H](C)[C@@H]([C@@H](CC(=O)N1CCC[C@H]1[C@H](OC)[C@@H](C)C(=O)N[C@H](C)[C@@H](O)c1ccccc1)OC)N(C)C(=O)[C@@H](NC(=O)[C@H](C(C)C)N(C)C(=O)OCc1ccc(NC(=O)[C@H](CCCNC(N)=O)NC(=O)[C@@H](NC(=O)CCCCCN2C(=O)C=CC2=O)C(C)C)cc1)C(C)C [vcMMAE] ({Hexanoyl(6-maleimido)}-V[Cit][PABC][NMeV]V[Dil][Dolaproine]-X1),in-vitro sensitivity of Anxa1-positive cells relative to ANXA1-negative cells,[4],twice
same,average radiance of luciferase-expressing tumor,[5],tended to increase
same,white blood cell count,"[7]; 0.919 mg/kg, post-treatment",reduced
same,average radiance of luciferase-expressing tumor,[8],tended to increase
biotin-dst7 (D-amino acid peptide stsrntl modified with biotin at the N-terminus),pKd,[3],6.14
EMCS-^10BSH-val-cit-hpnevrs ([dH][dP][dN][dE][dV][dR][dS]; not fully specified (N-terminus); printed as EMCS-^10BSH-val-cit-hpnevrs) [^10BSH-vc-dhp7],efficiency of intracellular intake of ^10BSH,"[10]; ANXA1-positive PC3 cells, versus IF7-^10BSH and ^10BSH treatment groups",statistically significantly higher
same,uptake in PSMA-negative cells compared with PSMA-positive cells,[10]; PSMA-negative cells expressing less ANXA1 on the cell surface,took up ^10BSH-vc-dhp7 less than the PSMA-positive cells did
same,intracellular uptake of ^10BSH (fluorescence),"[10]; amount equal to 50 µg of ^10BSH, 24 hours, compared with ^10BSH",more dotted intracellular fluorescence was observed
same,"tumor reduction effect, BNCT treatment group",[11],no tumor reduction effect was observed
same,state in physiological saline,[9],in a dissolved state
same,intracellular intake of ^10BSH,[12],statistically significant intracellular intake of ^10BSH in all cells
same,"tumor growth suppressing effect, BNCT treatment group","[13]; ANXA1-positive head and neck cancer model, 330 mg/kg intraperitoneal, starting immediately after the first BNCT",tumor growth suppressing effect more remarkable than that in the ^10BSH and BNCT treatment group
same,tumor volume compared with ^10BSH and BNCT treatment group,[13]; one week after the second irradiation,reduced tumor volume
"EMCS-^10BSH-hpnevrs (HPNEVRS; not fully specified (some residues, N-terminus); printed as EMCS-^10BSH-hpnevrs) [^10BSH-dhp7]","tumor reduction effect, non-BNCT treatment group","[14]; 20 mg/kg intraperitoneal, no irradiation",no tumor reduction effect was observed
same,"tumor reduction effect, BNCT treatment group","[14]; 20 mg/kg intraperitoneal, two thermal neutron irradiations, one week after the second irradiation",tumors almost completely disappeared
same,residual tumors in pathological analysis of resected tissues,[14]; administration and BNCT treatment group,no residual tumors in four of eight cases
same,intracellular uptake of ^10BSH (fluorescence),MBT2 and PC3-PSMA+ cells,dotted intracellular fluorescence was observed
